{"source": "patent US20240208950A1", "about": "“COMPOSITIONS AND METHODS FOR TREATMENT OF CERVICAL AND OVARIAN CANCER” (SOUTH DAKOTA BOARD OF REGENTS, priority 2021, published 2024)", "key": {"[1]": {"system": "cleaved PARP in CaSki cells", "assay": "Western blot for cleavage of PARP, CaSki", "type": "cell-based, human", "conditions": "24 hours", "experimental": "(§1) The effect of Br-ORM on protein expression in cervical cancer cells were determined by Western blot analysis by using specific antibodies.\nIt was observed that Br-ORM exerts potent growth inhibitory effects, so the effect of Br-ORM on apoptosis induction was further examined. Cervical cancer cells were treated with Br-ORM (10 μM) for 24 hours and the apoptosis inducing effect of Br-ORM was analyzed by Annexin V staining and Western blot analysis for cleavage in PARP protein.\nFIG. 13. Br-ORM decreases proliferation and colony formation of cervical cancer cells. FIG. 13A. Effect of Br-ORM on cell viability of CaSki cells (i) and SiHa cells (ii). Briefly, cervical cancer cells were seeded (2500) in each well of 96-well plate and after overnight incubation; cells were treated with indicated concentrations of Br-ORM for 24 hours. Cell viability was assessed by MTS assay. […] Bar graphs indicating quantification of colony formation in CaSki (i), and SiHa (ii) cells of cervical cancer with respect to vehicle control. […] Briefly, cervical cancer cells were treated with Br-ORM (10 μM) for 24 hours and the apoptosis inducing effect of Br-ORM was analyzed by Annexin V staining. […] The equal loading of protein in each lane was determined by probing the blots with β-actin antibody (FIG. 13F). […] Br-ORM arrests cell cycle in G1/S phase as determined by flow cytometry. […]"}, "[2]": {"system": "EMT markers and MMPs in SiHa cells", "assay": "Western blot for EMT markers and MMPs, SiHa", "type": "cell-based, human", "conditions": "24 hours", "experimental": "In a further example, cell lysates and western blot analysis was conducted for EMT markers and MMPs. […] In this example, about 70% of confluent SiHa and CaSki were treated with ORM-Br ([…]) for 24 hours. Cell lysates were prepared, and western blot analysis were conducted for EMT markers and MMPs analysis. The effect of ORM-Br on protein levels of cell-cycle regulatory proteins (cyclin E1 and p27) in both CaSki and SiHa cell lines are shown.\nas §1\nEpithelial mesenchymal transition (EMT) is the basic characteristic of cancer cells in which epithelial cells undergo morphologic and molecular changes that transform the cells to mesenchymal, highly metastatic (invasive and motile), and drug-resistant phenotypes. Thus, targeting EMT may reduce the invasive phenotypes of a cancer cell and have significant advantage to overcome drug resistance. It has been reported that β-catenin is involved in invasion and metastasis via inducing EMT in various tumor cells. The effect of Br-ORM treatment on various EMT markers in cervical cancer cells was evaluated. […] The effect of Br-ORM on expression of EMT markers in cervical cancer cells compared to untreated group by use of qPCR analysis was determined. […] Expression of E-cadherin in cervical cancer cells treated with Br-ORM (10 μM) for 18 hours was also determined by immunofluorescence and confocal microscopy. Images were captured under 60× magnification and representative images are presented (FIG. 14G).\nFIG. 14. Br-ORM decreases migration, invasion and attenuates EMT in cervical cancer cells. Effect of Br-ORM on cell migration of cervical cancer cells as determined by agarose bead (FIG. 14A), scratch wound healing (FIG. 14B), and Boyden chamber assay (FIG. 14C). AB denotes agarose bead while MC denotes migratory cells. Arrows indicate the distance of cervical cancer (CaSki and SiHa) cells migration in control and Br-ORM treated groups (FIG. 14A(i)-(ii)). […] Closure of wound was determined and photographed using phase contrast microscopy. […] Bar graph represent the quantification of migrated CaSki cells of control and Br-ORM treated groups (FIG. 14C(ii)). […] Effect of Br-ORM treatment on invasion of CaSki cells as determined by a commercially available kit (BD Biosciences) as described in materials and methods. In brief, 24 hours post-treatment of Br-ORM, invaded cells were fixed, stained and counted. […] Bar graph represent the quantification of invaded CaSki cells of control and Br-ORM treated groups (FIG. 14D(ii)). […] Effect of Br-ORM on E-cadherin expression in cervical cancer cells as determined by confocal microscopy in control and Br-ORM treated cells after 18 hours."}}}
{"smiles": "COc1ccc2c(c1)OC(C)(C)C(c1ccc(Br)cc1)C2c1ccc(OCCN2CCCC2)cc1", "note": "(centres unmarked) [ORM-Br]", "values": [{"measurement": "protein levels of cleaved PARP", "setting": "[1]", "value": "dose dependently enhanced the protein levels of cleaved PARP"}, {"measurement": "EMT associated markers (N-cadherin, vimentin and snail) expression", "setting": "[2]", "value": "inhibits the EMT associated markers"}, {"measurement": "expression of E-cadherin", "setting": "[2]", "value": "induced the expression of E-cadherin"}, {"measurement": "expression of MMP2 and MMP9", "setting": "[2]", "value": "inhibited the expression of MMP2 and MMP9"}, {"measurement": "EMT associated markers (N-cadherin, vimentin and snail) expression", "setting": "[2]; listed as Br-ORM", "value": "marked inhibition"}]}
